From article PMC3454376, “Salidroside Improves Behavioral and Histological Outcomes and Reduces Apoptosis via PI3K/Akt Signaling after Experimental Traumatic Brain Injury” (PLoS ONE, 2012)

Tested on: mice subjected to controlled cortical impact injury
Test: Fluoro-Jade B staining of degenerating neurons
Type: in vivo
Settings: day 1
Protocol: All animal procedures were approved by the Animal Research Committee at Cheng Hsin General Hospital (Animal permit number […] 101-08), and all procedures complied with the Guide for the Care and Use of Laboratory Animals published by the US National Institutes of Health (NIH Publication No. 85-23, revised 1996). Animals were housed under a 12-h light/dark cycle and at constant temperature (21-25°C) and humidity (45-50%). They were allowed free access to pellet chow and water. TBI in mice was induced by a CCI injury model as previously described. Briefly, 8-week-old male C57BL/6 mice (weighing 22-25 g) were anesthetized through the use of intraperitoneal injection of sodium pentobarbital (65 mg/kg; Rhone Merieux, Harlow, UK) and placed in a stereotaxic frame. A 5 mm craniotomy was performed over the right parietal cortex, centered on the coronal suture and 0.1 mm lateral to the sagittal suture, and injury to dura was avoided. Injury was induced using a pneumatic piston with a rounded metal tip (2.5 mm diameter) that was angled 22.5° to the vertical so that the tip was perpendicular with the brain surface at the center of the craniotomy. The impact, with a velocity of […] and a deformation depth of 2 mm below the dura, was applied. The bone flap was immediately replaced and sealed, and the scalp was sutured. Body temperature was monitored throughout the surgery by a rectal probe; temperature was maintained at 37.0±0.5°C using a heated pad. Mice were placed in a heated cage to maintain body temperature, while recovering from anesthesia. Sham-operated mice underwent the same procedure as injured mice, but without CCI. Three sets of experiments were performed. The first set was to investigate the protective effects of salidroside. All animals were randomized into 1 of 3 groups (sham injury, CCI + vehicle, CCI + SALD 20). Surgery/injury, behavioral testing, and tissue analyses were performed by different individuals. Behavioral testing and tissue analyses were performed by individuals blinded to the treatment group. Salidroside (Cayman Chemical, Ann Arbor, MI, USA) dissolved in normal saline (0.25 mL) or a corresponding volume of vehicle (saline) was administered intraperitoneally 10 min following injury. Testing after injury was completed as follows: 1) behavioral testing at days 1, 4, 7, 14, 21, and 28 (n = 8-10 mice/group); 2) cresyl violet staining at day 28 (n = 9 mice/group); 3) histology, determination of brain water content, and western blot analysis at day 1 or 3 (n = 5-6 mice/group). To determine the optimal dose of salidroside, a pilot study was performed using 2 different doses (20 and 50 mg/kg) administered 10 min after injury, and neurological deficits and tissue damage were evaluated as the main outcomes. […] The second set of experiment was to assess the effect of the inhibition of PI3K/Akt with the specific PI3K inhibitor, LY294002 (Cell Signaling Technology, Danvers, MA, USA), on salidroside effects. Animals were randomized into 4 groups. Mice received either: 1) icv pretreatment of LY294002 followed by SALD 20 after CCI (S20Y group); or 2) icv pretreatment of saline (vehicle control) followed by SALD 20 after CCI (S20V group). 3) Mice were infused icv with saline and were subjected to sham injury. 4) Mice were infused icv with LY294002 and were subjected to sham injury. Testing after injury was completed as follows: 1) cresyl violet staining at day 28 (n = 6 mice/group); 2) western blot analysis at day 1 (n = 6 mice/group). The third set of experiment was performed to examine the neuroprotective time window afforded by salidroside. Mice received intraperitoneal SALD 20 or vehicle (saline) at 3 or 6 h following CCI and were sacrificed 1 day later for FJB staining and western blot analysis (n = 6 mice/group). […]

OC[C@H]1O[C@@H](OCCc2ccc(O)cc2)[C@H](O)[C@@H](O)[C@@H]1O [SALD, salidroside]
FJB-positive neurons around the injured cortical area (20 mg/kg ip 10 min after CCI, vehicle 87.9±5.9, P<0.01): 55.1±6.9 cells/field
reduction of the number of FJB-positive neurons (20 mg/kg ip 10 min after injury): 37.3%
reduction of neuronal damage (FJB) (20 mg/kg ip 3 h after injury): 21.9%
FJB-positive neurons around the injured cortical area (20 mg/kg ip 3 h after injury, vehicle 91.2±3.3, P<0.001): 71.2±2.7 cells/field
reduction of neuronal damage (FJB) (20 mg/kg ip 6 h after injury): 22.8%
FJB-positive neurons around the injured cortical area (20 mg/kg ip 6 h after injury, vehicle 92.9±3.3, P<0.001): 71.7±1.6 cells/field
